Test results from article PMC3609652 (The Biochemical journal, 2013).

What was measured:
[1] = biological target: IgE^dansyl (monoclonal anti-dansyl IgE, clone 27–74); test: tryptophan fluorescence quenching titration with monovalent hapten; type: binding
[2] = biological target: IgE^DNP (monoclonal anti-DNP IgE); test: as above; type: binding

| Substance | Kd [1] [nM] | Kd [2] [nM] |
| --- | --- | --- |
| dansyl | 54 ± 4 |  |
| DNP |  | 22 ± 2 |
